# Values quoted from earlier work, collected in patent US20250303004A1, “RADIOPHARMACEUTICAL COMPOSITIONS FOR LOW TOXICITY ACTINIUM IN TARGETED RADIONUCLIDE THERAPY” (Curium US LLC, priority 2021, published 2025).
# Legend:
# [1] = system: patient with advanced mCRPC; details: cited from earlier work
# [2] = system: patients; details: cited from earlier work
# [3] = system: kidneys and lesion of a mCRPC patient; details: 8.1 MBq, cited from earlier work
# [4] = subgroup of 11 patients with prior ^177Lu-PSMA treatment
# [5] = subgroup with prior ^177Lu-PSMA radioligand therapy
smiles,measurement,setting,value
"O=C(O)CC[C@H](NC(=O)N[C@@H](CCCCNC(=O)CCCCCCC(=O)NCCCC[C@@H](NC(=O)[C@@H](Cc1ccccc1)NC(=O)[C@@H](Cc1ccc(O)c(I)c1)NC(=O)CC[C@H](C(=O)O)N1CCN(CC(=O)O)CCN(CC(=O)O)CCN(CC(=O)O)CC1)C(=O)O)C(=O)O)C(=O)O.[225Ac+3] [^225Ac-PSMA-I&T, (3S,7S,26R,29R,32R,37R)-29-benzyl-32-(4-hydroxy-3-iodobenzyl)-5,13,20,28,31,34-hexaoxo-37-(4,7,10-tris(carboxymethyl)-1,4,7,10-tetraazacyclododecan-1-yl)-4,6,12,21,27,30,33-heptaazaheptatriacontane-1,3,7,26,37-pentacarboxylic acid; Actinium-225 (III)]",main TAT-related side effect,[1]; already preexisting after 10 cycles of RLT,grade 2 xerostomia
same,response,"[1]; two cycles after failure of ^177Lu-PSMA-617 (10 cycles), FIG. 6",encouraging response
same,hematological side effects,[1]; two cycles,No TAT-related grade 3/4 hematological side effects were noted
same,acute toxicity during hospitalization,"[2]; 14 patients, 34 cycles, median 7.8 MBq",No acute toxicity was observed
same,hematologic toxicity,"[2]; 14 patients, FIG. 13",mild
same,patients with grade 1 nephrotoxicity,"[2]; 14 patients, FIG. 13",one
same,biochemical responses compared with ^225Ac-PSMA-617 TAT,[2]; first clinical data,highly comparable biochemical responses
same,patients with grade 3 anemia after TAT,"[2]; of 14 patients, 2 with grade 2 anemia at baseline",3 patients
same,patients reporting no xerostomia at all,[2]; of 14 patients,One
same,patients with PSA decline of any amount,[2]; of 14 patients,11 patients
same,patients with best PSA response (PSA decline ≥50%),[2]; of 14 patients,7 patients
same,patients with grade 3 leukopenia,[2]; of 14 patients,1 patients
same,patients with newly diagnosed grade 1 or 2 xerostomia after TAT,[2]; of 14 patients,5 patients
same,patients with no PSA decline at any time,[2]; of 14 patients,Three
same,patients with preexisting xerostomia after ^177Lu-PSMA showing no worsening after TAT,[2]; of 14 patients,Eight
same,patients with PSA decline of at least 50%,[2]; [4],5 patients
same,patients with any PSA decline,[2]; [4],8 patients
same,PSA decline ≥50%,[2]; [5],45%
same,any PSA decline,[2]; [5],73%
same,"absorbed dose, left kidney",[3]; SPECT/CT at 24 h p. i.,0.18 Sv(RBE=5)/MBq
same,"absorbed dose, right kidney",[3]; SPECT/CT at 24 h p. i.,0.17 Sv(RBE=5)/MBq
same,"absorbed dose, small lesion in the right hip",[3],0.26 Sv(RBE=5)/MBq
